Measured values: US9643999B2 (Bristol-Myers Squibb Company, priority 2012, dated 2017)
Read-outs that look alike come from different tables or passages of the source.

Legend:
HCV genotype 1a replicon = test: HCV replicon luciferase reporter assay, genotype 1a (LE_1a); assay type: cell-based; settings: Hepatitis C virus, 72 h, HUH-7 cells, genotype 1a H77 replicon, 3 days incubation, Renilla luciferase
Description: (§1) An HCV replicon whole cell system was established as described by Lohmann V, Korner F, Koch J, Herian U, Theilmann L, Bartenschlager R., Science 285(5424):110-3 (1999) and modified to introduce a luciferase reporter, as first described by Krieger et al (Krieger N, Lohmann V, and Bartenschlager R, J. Virol. 75(10):4614-4624 (2001)). cDNA encoding a humanized form of the Renilla luciferase gene and a linker sequence fused directly to the 3′-end of the luciferase gene were introduced into the replicon construct using an Asc1 restriction site located in core, directly upstream of the neomycin marker gene. The adaptive mutation at position 1179 (serine to isoleucine) was also introduced (Blight K J, Kolykhalov, A A, Rice, C M, Science 290(5498):1972-1974). A stable cell line constitutively expressing this HCV replicon construct was generated by first linearizing plasmid DNAs with ScaI. RNA transcripts were synthesized in vitro using the T7 MegaScript transcription kit (Ambion, Austin, Tex.) according to manufacturer's directions. In vitro transcripts of the cDNA were transfected into the human hepatoma cell line, HUH-7. […] Resulting cell lines were characterized for positive and negative strand RNA production and protein production over time.
A stable HCV replicon luciferase reporter cell line representing the genotype 1a H77 strain (Yanagi M, Purcell R H, Emerson S U, et al. Transcripts from a single full-length cDNA clone of hepatitis C virus are infectious when directly transfected into the liver of a chimpanzee. Proc Natl Acad Sci USA 1997; 94(16):8738-8743) was generated as described previously for the genotype 1b(Con1) replicon luciferase cell line. The replicon construct was modified by introducing mutations were introduced into the genes encoding the NS3 helicase domain (proline replaced by leucine at position 1496) and NS5A (serine to isoleucine at position 2204) to improve replication in cell culture.
(§2) HCV replicon luciferase assays were developed to monitor the inhibitory effects of compounds described in the disclosure on HCV genotypes 1a and 1b viral replication. HUH-7 cells, constitutively expressing the HCV replicon, were grown in Dulbecco's Modified Eagle Media (DMEM) (Gibco-BRL) containing 10% Fetal calf serum (FCS) (Sigma) and 1 mg/mL G418 (Gibco-BRL). Compounds were serially diluted 3 folds in DMSO for a twenty-point titration and subsequently transferred to sterile 384-well tissue-culture treated plates (Corning cat #3571). The plates were then seeded with 50 μL of cells at a density of 3.0×10^3 cells/well in DMEM containing 4% FCS (final DMSO concentration at 0.5%). After 3 days incubation at 37° C., cells were analyzed for Renilla Luciferase activity using the EnduRen as substrate (Promega cat #E6485). The EnduRen substrate was diluted in DMEM and then added to the plates to a final concentration of 7.5 μM. The plates were incubated for 2 hrs at 37° C. and then read immediately for 30 seconds with Viewlux Imager (PerkinElmer) using a luminescence program. To assess cytotoxicity of compounds, CC50 values were generated by multiplexing the EnduRen-containing plates with Cell Titer-Blue (Promega, cat #G8082). Cell-Titer Blue (3 μL) was added to each well and incubated for 8 hrs at 37° C. The fluorescence signal from each well was read, with an excitation wavelength at 525/10 nm and an emission wavelength of 598/10 nm, using the Viewlux Imager.
(§3) The EC50 values for compounds were calculated by using a four-parameter logistic equation: y=A+((B−A)/(1+((C/x)^D))), where A and B denotes minimal and maximal % inhibition, respectively, C is the EC50, D is the hill slope and x represents compound concentration.

HCV genotype 1b replicon = test: HCV replicon luciferase reporter assay, genotype 1b (LE_1b); assay type: cell-based; settings: Hepatitis C virus, 72 h, HUH-7 cells, genotype 1b (Con1) replicon, 3 days incubation, Renilla luciferase
Description: as §1, with “time. […]” for “time.”
as §2, §3

SMILES	EC50 (HCV genotype 1a replicon; read-out: LE_1a (EC50))	EC50 (HCV genotype 1a replicon; read-out: LE_1a (EC50, range))	EC50 (HCV genotype 1b replicon; read-out: LE_1b (EC50))	EC50 (HCV genotype 1b replicon; read-out: LE_1b (EC50, range))
CC[C@@H]1C[C@H](C)CC/C=C\[C@@H]2C[C@@]2(C(=O)NS(=O)(=O)C2CC2)NC(=O)[C@@H]2C[C@@H](Oc3nc4cc(OC)ccc4nc3C3CC3)CN2C(=O)[C@H]1NC(=O)OC(C)(C)C(F)(F)F [Compound 4309]	3.51 nM	1.01 to 5 nM	2.31 nM	1.01 to 5 nM
Cc1cn2c(n1)nc(O[C@@H]1C[C@H]3C(=O)N[C@]4(C(=O)NS(=O)(=O)C5(C)CC5)C[C@H]4/C=C\CC[C@@H](C)C[C@@H](C)[C@H](NC(=O)OC(C)(C)C(C)(F)F)C(=O)N3C1)c1cc(Cl)ccc12 [Compound 6137]	–	1.01 to 5 nM	–	0.51 to 1 nM
COc1ccc2nc(O[C@@H]3C[C@H]4C(=O)N[C@]5(C(=O)NS(=O)(=O)C6(C)CC6)C[C@H]5/C=C\CC[C@@H](C)C[C@@H](C)[C@H](NC(=O)OC(C)(C)C)C(=O)N4C3)c(C3CC3)nc2c1 [Compound 4303]	–	1.01 to 5 nM	–	1.01 to 5 nM
CC[C@@H]1C[C@H](C)CC/C=C\[C@@H]2C[C@@]2(C(=O)NS(=O)(=O)C2(C)CC2)NC(=O)[C@@H]2C[C@@H](Oc3ncc(-c4nccs4)c4cc(OC)ccc34)CN2C(=O)[C@H]1NC(=O)OC(C)(C)C(F)(F)F [Compound 4258]	–	1.01 to 5 nM	–	1.01 to 5 nM
CC[C@@H]1C[C@H](C)CC/C=C\[C@@H]2C[C@@]2(C(=O)NS(=O)(=O)C2(C)CC2)NC(=O)[C@@H]2C[C@@H](Oc3nccc4c5c(ccc34)CCO5)CN2C(=O)[C@H]1NC(=O)OC(C)(C)C [Compound 5493, tert-butyl((2R,6S,7R,9R,13aS,14aR,16aS,Z)-2-((2,3-dihydrofuro[2,3-f]isoquinolin-6-yl)oxy)-7-ethyl-9-methyl-14a-(((1-methylcyclopropyl)sulfonyl)carbamoyl)-5,16-dioxo-1,2,3,5,6,7,8,9,10,11,13a,14,14a,15,16,16a-hexadecahydrocyclopropa[e]pyrrolo[1,2-a][1,4]diazacyclopentadecin-6-yl)carbamate]	–	35 to 145 nM	–	5.01 to 35 nM
CC[C@@H]1C[C@H](C)CC/C=C\[C@@H]2C[C@@]2(C(=O)NS(=O)(=O)C2CC2)NC(=O)[C@@H]2C[C@@H](Oc3ncc(-c4nc(C(C)(C)C)cs4)c4cc(OC)ccc34)CN2C(=O)[C@H]1NC(=O)OC(C)(C)C [Compound 4280, tert-butyl((2R,6S,7R,9R,13aS,14aR,16aS,Z)-2-((4-(4-(tert-butyl)thiazol-2-yl)-6-methoxyisoquinolin-1-yl)oxy)-14a-((cyclopropylsulfonyl)carbamoyl)-7-ethyl-9-methyl-5,16-dioxo-1,2,3,5,6,7,8,9,10,11,13a,14,14a,15,16,16a-hexadecahydrocyclopropa[e]pyrrolo[1,2-a][1,4]diazacyclopentadecin-6-yl)carbamate]	–	5.01 to 35 nM	–	1.01 to 5 nM
C[C@@H]1CC/C=C\[C@@H]2C[C@@]2(C(=O)NS(=O)(=O)C2(C)CC2)NC(=O)[C@@H]2C[C@@H](Oc3nccc4c5c(ccc34)CCO5)CN2C(=O)[C@@H](NC(=O)OC(C)(C)C)[C@H](C)C1 [Compound 5491, tert-butyl((2R,6S,7R,9R,13aS,14aR,16aS,Z)-2-((2,3-dihydrofuro[2,3-f]isoquinolin-6-yl)oxy)-7,9-dimethyl-14a-(((1-methylcyclopropyl)sulfonyl)carbamoyl)-5,16-dioxo-1,2,3,5,6,7,8,9,10,11,13a,14,14a,15,16,16a-hexadecahydrocyclopropa[e]pyrrolo[1,2-a][1,4]diazacyclopentadecin-6-yl)carbamate]	5.41 nM	5.01 to 35 nM	2.57 nM	1.01 to 5 nM
CC[C@@H]1C[C@H](C)CC/C=C\[C@@H]2C[C@@]2(C(=O)NS(=O)(=O)C2CC2)NC(=O)[C@@H]2C[C@@H](Oc3ncc(-c4cnco4)c4cc(OC)ccc34)CN2C(=O)[C@H]1NC(=O)OC(C)(C)C(F)(F)F [Compound 4293]	–	1.01 to 5 nM	–	0.51 to 1 nM
CC[C@@H]1C[C@H](C)CC/C=C\[C@@H]2C[C@@]2(C(=O)NS(=O)(=O)C2(C)CC2)NC(=O)[C@@H]2C[C@@H](Oc3ncc(C(=O)OC)c4cc(OC)ccc34)CN2C(=O)[C@H]1NC(=O)OC(C)(C)C(F)(F)F [Compound 4287]	–	1.01 to 5 nM	–	1.01 to 5 nM
[2H]C([2H])([2H])C1(S(=O)(=O)NC(=O)[C@@]23C[C@H]2/C=C\CC[C@@H](C)C[C@@H](CC)[C@H](NC(=O)OC(C)(C)C(F)F)C(=O)N2C[C@H](Oc4ncc(OC)c5ccccc45)C[C@H]2C(=O)N3)CC1 [Compound 5549]	–	0.51 to 1 nM	–	0.51 to 1 nM
[2H]C([2H])([2H])C1(S(=O)(=O)NC(=O)[C@@]23C[C@H]2/C=C\CC[C@@H](C)C[C@@H](CC)[C@H](NC(=O)OC(C)(C)C(F)F)C(=O)N2C[C@H](Oc4nccc5cc(OC)c(F)cc45)C[C@H]2C(=O)N3)CC1 [Compound 5515]	–	1.01 to 5 nM	–	0.51 to 1 nM
[2H]C([2H])([2H])C1(S(=O)(=O)NC(=O)[C@@]23C[C@H]2/C=C\CC[C@@H](C)C[C@@H](CC)[C@H](NC(=O)OC(C)(C)C(F)F)C(=O)N2C[C@H](Oc4nccc5cc(OCC)c(F)cc45)C[C@H]2C(=O)N3)CC1 [Compound 5521]	1.23 nM	1.01 to 5 nM	0.47 nM	0.1 to 0.5 nM
Cc1cnc(-c2ccc3nc(C(F)(F)F)c(O[C@@H]4C[C@H]5C(=O)N[C@]6(C(=O)NS(=O)(=O)C7(C)CC7)C[C@H]6/C=C\CC[C@@H](C)C[C@@H](C)[C@H](NC(=O)OC(C)(C)C(F)(F)F)C(=O)N5C4)nc3c2)o1 [Compound 7002]	–	1.01 to 5 nM	–	0.51 to 1 nM
CC[C@@H]1C[C@H](C)CC/C=C\[C@@H]2C[C@@]2(C(=O)NS(=O)(=O)C2(C)CC2)NC(=O)[C@@H]2C[C@@H](Oc3cc(-n4ccnc4)c4ccc(OC)cc4n3)CN2C(=O)[C@H]1NC(=O)OC(C)(C)C(F)(F)F [Compound 4282]	–	5.01 to 35 nM	–	1.01 to 5 nM
CC[C@@H]1C[C@H](C)CC/C=C\[C@@H]2C[C@@]2(C(=O)NS(=O)(=O)C2CC2)NC(=O)[C@@H]2C[C@@H](Oc3nc4ccc(OC)cc4nc3C3CC3)CN2C(=O)[C@H]1NC(=O)OC(C)(C)C(F)(F)F [Compound 4308]	–	5.01 to 35 nM	–	5.01 to 35 nM
Cc1cn2c(n1)nc(O[C@@H]1C[C@H]3C(=O)N[C@]4(C(=O)NS(=O)(=O)C5(CF)CC5)C[C@H]4/C=C\CC[C@@H](C)C[C@@H](C)[C@H](NC(=O)OC(C)(C)C(F)(F)F)C(=O)N3C1)c1cc(Cl)ccc12 [Compound 6139]	–	5.01 to 35 nM	–	1.01 to 5 nM
C[C@@H]1CC/C=C\[C@@H]2C[C@@]2(C(=O)NS(=O)(=O)C2(C)CC2)NC(=O)[C@@H]2C[C@@H](Oc3nccc4c5c(ccc34)CCO5)CN2C(=O)[C@@H](NC(=O)OC(C)(C)C(C)(F)F)[C@H](C)C1 [Compound 5495]	–	1.01 to 5 nM	–	0.51 to 1 nM
